In PMC12423301, “Astrocytic monoamine oxidase B (MAOB)–gamma-aminobutyric acid (GABA) axis as a molecular brake on repair following spinal cord injury” (Signal Transduction and Targeted Therapy, 2025):
Where two headings read alike, the source gives them in different places.

Tests used:
hERG = hERG (Homo sapiens, UniProt Q12809); experiment: hERG assay; format: biochemical
Experimental: Protocol No. NB_KDS_ADP1_21 Confidential administration of the test substance to rats at a dose of 50-200 mg/kg daily for 2 weeks, there were no deaths.
As a result of oral administration to rats at doses of 30, 50, 75 and 100 mg/kg once daily for 4 weeks, […]
testis, epididymis and lungs. Renal epithelial hyperplasia and inflammatory cells infiltration in the renal pelvis observed in the male and female dose groups of 75 mg/kg or more, germ cell degeneration/loss and seminiferous tubules atrophy observed in the male dose groups of 75 mg/kg or more, and vacuole/degeneration of outer medullary tubules and basophilic tubules observed in the female dose groups were judged to be adverse effects due to administration of the test substance. […] Accordingly, in repeated administrations of rats for 4 weeks, the NOAEL(No Observed Adverse Effect Level) was determined to be 50 mg/kg/day for males and 30 mg/kg for females. […]
(§1) In a pharmacokinetic study, plasma PK parameters were measured after a single oral administration of […]
a result of measuring excretion into urine, feces, expiration, and bile, 6.9% was excreted in urine and 48.5% in feces, respectively, up to 168 hours after administration. Excretion to air through respiration was about 0.0% until 48 hours after administration, and 44.1% of the administered radioactivity concentration was present in the body (carcass). […]

monkey SCI model = experiment: Monkey SCI model: tissue sections and immunohistochemistry; format: in vivo, cynomolgus macaques (Macaca fascicularis)
Experimental: For the nonhuman primate SCI model, female cynomolgus macaques were anesthetized with Zoletil 50 (8–10 mg/kg; Virbac Korea) and isotropy 100. Laminectomy was performed at thoracic level 8 under X-ray guidance, and the SCI model was established using a vessel clip (Micro Serrefine Clamp, 1805501, Fine Science Tools; 60 g pressure, 19 mm) applied for 10 min. After surgery, the monkeys were monitored until full recovery, with precautions taken to prevent hypothermia and dehydration. For pressure ulcers, antibacterial drugs were administered, and sugar therapy was applied as needed.
To determine the appropriate dosing for macaques, interspecies dose translation was performed according to the U.S. FDA’s Guidance for Industry (2005), using body surface area (BSA)-based conversion with species-specific Km values.
On the basis of this calculation, two doses were selected: 3 mg/kg/day (~60% of the HED) for evaluating the minimal effective dose, and 10 mg/kg/day (approximately 2× HED) for assessing upper tolerability and therapeutic margin.
Immunohistochemistry was performed as previously described.[70] The tissue sections were blocked and treated with primary antibodies. After overnight incubation at 4 °C, species-specific fluorescent secondary antibodies were applied for visualization. The tissue sections were then stained with 4’,6-diamidino-2-phenylindole (DAPI) during mounting. This protocol allows a detailed assessment of various cellular markers involved in SCI and recovery processes.

[1] = Sprague-Dawley, rat, in vivo
rat SCI model = experiment: TEM and TB staining of rat spinal cord (myelination); format: in vivo, Sprague-Dawley (SD) rats
Experimental: Spinal cord tissues were prefixed in Karnovsky’s fixative (2% glutaraldehyde, 2% paraformaldehyde in 0.1 M phosphate buffer) overnight at 4 °C. After postfixation in 1% osmium tetroxide (OsO4), the samples were dehydrated through a graded ethanol series and embedded in epoxy resin.
For TB staining, 250–300 nm semi-thin sections were obtained via an ultramicrotome (Leica Ultracut UCT, Leica Microsystems, Austria), stained with 0.5% toluidine blue, and imaged using a light microscope (Olympus IX71).
For TEM, 80–100 nm ultrathin sections were cut using a diamond knife (Diatome, Switzerland), mounted on 300-mesh Gilder grids, and stained with 6% uranyl acetate and lead citrate. Images were acquired using a transmission electron microscope (JEM 1011, JEOL, Tokyo, Japan) as previously described.
All TB and TEM analyses were performed on spinal cord tissues collected at the lesion epicenter, where myelination is most affected by injury.

[2] = Preclinical pharmacokinetics in mice; format: in vivo, mouse
in vivo = experiment: in vivo; parameters: species or system SD Rat; conditions: rat
Experimental: Next, we tested whether pharmacological inhibition of MAOB facilitates recovery after SCI. […] The pharmacokinetic (PK) analysis of KDS2010 was performed in mice, rats, and nonhuman primates. […] We substituted the mouse SCI model with a rat SCI model, which has been reported to be better for pharmacological evaluation and closer to human SCI.[21] We performed Basso, Beattie and Bresnahan (BBB) locomotor test[22] to assess the functional recovery once a week for a total of 11 weeks (Fig. 2a). […] In addition to the BBB locomotor test, we performed the ladder rung test by measuring the percentage of hindlimb steps without slipping as rats walked along a horizontal ladder[23] (Fig. 2d, e). […] We then assessed the tissue recovery using EC staining on cross and longitudinal sections of the spinal cord. […]
as §1
dose group and at 4 to 6 hours after administration in the 30 mg/kg dose group. In the elimination phase, the […]
Systemic exposure (AUClast) to the test substance was 30587 and 80770 ng*hr/mL, respectively.
At this time, AUC0-inf was […]
time, AUC0-inf was 192000 ng eq.h/mL. […]

[3] = ICR mouse, 5 mg/kg single intravenous administration
[4] = in vivo, APP/PS1 mouse, 1 mg/kg single oral administration
[5] = in vivo, APP/PS1 mouse, 10 mg/kg single oral administration
[6] = in vivo, ICR mouse, 5 mg/kg single intravenous administration
[7] = in vivo, ICR mouse, 5 mg/kg single oral administration
[8] = in vivo, ICR mouse, 10 mg/kg single oral administration
[9] = in vivo, ICR mouse, 30 mg/kg single oral administration

hERG, sequence (Q12809 whole entry): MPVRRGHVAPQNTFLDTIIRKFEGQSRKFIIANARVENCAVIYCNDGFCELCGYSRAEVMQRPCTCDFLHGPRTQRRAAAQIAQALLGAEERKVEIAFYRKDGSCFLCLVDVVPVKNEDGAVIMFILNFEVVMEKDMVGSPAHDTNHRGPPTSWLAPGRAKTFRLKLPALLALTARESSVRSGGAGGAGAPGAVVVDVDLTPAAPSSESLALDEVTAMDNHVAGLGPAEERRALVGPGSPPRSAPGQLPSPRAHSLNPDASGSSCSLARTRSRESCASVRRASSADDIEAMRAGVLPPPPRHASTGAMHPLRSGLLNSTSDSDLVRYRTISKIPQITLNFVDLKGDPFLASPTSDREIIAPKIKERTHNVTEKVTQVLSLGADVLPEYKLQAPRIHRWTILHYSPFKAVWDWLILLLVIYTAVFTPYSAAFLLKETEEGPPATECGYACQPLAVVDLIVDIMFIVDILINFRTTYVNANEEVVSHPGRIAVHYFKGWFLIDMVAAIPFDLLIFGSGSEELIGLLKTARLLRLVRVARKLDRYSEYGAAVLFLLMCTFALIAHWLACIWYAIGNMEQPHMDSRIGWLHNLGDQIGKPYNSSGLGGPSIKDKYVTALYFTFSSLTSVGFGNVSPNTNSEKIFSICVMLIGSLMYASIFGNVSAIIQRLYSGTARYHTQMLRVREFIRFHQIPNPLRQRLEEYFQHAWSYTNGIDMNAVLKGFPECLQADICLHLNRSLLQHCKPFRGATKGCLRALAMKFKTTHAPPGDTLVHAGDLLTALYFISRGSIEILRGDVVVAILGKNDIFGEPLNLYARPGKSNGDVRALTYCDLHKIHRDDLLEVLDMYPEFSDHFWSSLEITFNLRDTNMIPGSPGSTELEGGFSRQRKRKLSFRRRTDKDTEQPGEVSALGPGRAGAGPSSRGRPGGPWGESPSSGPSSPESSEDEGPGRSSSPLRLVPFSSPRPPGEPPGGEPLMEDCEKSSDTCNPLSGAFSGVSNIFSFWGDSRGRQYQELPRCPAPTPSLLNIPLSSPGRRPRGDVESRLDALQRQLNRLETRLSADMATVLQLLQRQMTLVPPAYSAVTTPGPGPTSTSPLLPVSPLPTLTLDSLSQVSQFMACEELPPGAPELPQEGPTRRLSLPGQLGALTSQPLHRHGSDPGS

In the case of CS(=O)(=O)O.C[C@H](NCc1ccc(-c2ccc(C(F)(F)F)cc2)cc1)C(N)=O [KDS2010, (S)-2-(((4’-Trifluoromethylbiphenyl-4-yl)methyl)amino)propanamide methane-sulfonate], the IC50 (hERG) is reported as 7.8 ± 1.7 µM, the “hematoma and cavity formation at the injury site” value (monkey SCI model; 3 or 10 mpk from the acute phase, PI 5w) is reported as “significantly reduced” and the “MAP2 intensity vs SCI + V” value (monkey SCI model; SCI + KDS 3 mpk, PI 5w) is reported as “tended to increase”. The “MAP2 intensity vs SCI + V” value (monkey SCI model; SCI + KDS 10 mpk, PI 5w) was “significantly greater”, the “astrocytic MAOB” value (monkey SCI model; both KDS treatment groups (3 and 10 mpk), PI 5w) was “significantly reduced” and the “pharmacologically active dose (PAD)” value (monkey SCI model; cynomolgus macaques, for 5 weeks) was 3 mpk. For the same compound, the approximate lethal dose ([1]; iv) was no less than 100 mg/kg, the approximate lethal dose ([1]; po) was no less than 1400 mg/kg and the “myelination (TEM)” value (rat SCI model; SCI + KDS 2w at PI 10w) was “fully recovered”. For the same compound, the “number of myelinated axons” value (rat SCI model; SCI + KDS 2w, PI 2-10w) was “gradual increase”, the density of cavities (rat SCI model; SCI + KDS 2w, TB staining, PI 2-10w) was “gradual decrease” and the CL/F [2, 3] was 28.47 ± 1.37 mL/min/kg. It also gave a Vd/F [2, 3] of 10.439 ± 0.682 L/kg, an AUC(0-inf) [2, 4] of 1130 ± 173 ng·h/mL and a half-life [2, 4] of 4.76 ± 0.43 h. It also gave a CL/F ([2]; in vivo, APP/PS1 mouse, 1 mg/kg single oral administration, read-out: CL/F (converted)) of 15 mL/min/kg, a Vd/F ([2]; in vivo, APP/PS1 mouse, 1 mg/kg single oral administration, read-out: Vd/F) of 6.13 ± 0.767 L/kg and an AUC(0-inf) [2, 5] of 12900 ± 740 ng·h/mL. For the same compound, the half-life [2, 5] was 5.7 ± 0.7 h, the CL/F ([2]; in vivo, APP/PS1 mouse, 10 mg/kg single oral administration, read-out: CL/F (converted)) was 14.3 mL/min/kg and the Vd/F ([2]; in vivo, APP/PS1 mouse, 10 mg/kg single oral administration, read-out: Vd/F) was 7.01 ± 0.934 L/kg. It also gave an AUC(0-inf) [2, 6] of 3590 ± 71.7 ng·h/mL, a half-life [2, 6] of 4.2 ± 0.2 h and an AUC(0-inf) [2, 7] of 4180 ± 100 ng·h/mL. The half-life [2, 7] was 4.2 ± 0.1 h, the CL/F ([2]; in vivo, ICR mouse, 5 mg/kg single oral administration, read-out: CL/F (converted)) was 18 mL/min/kg and the Vd/F ([2]; in vivo, ICR mouse, 5 mg/kg single oral administration, read-out: Vd/F) was 6.6 ± 0.38 L/kg. For the same compound, the AUC(0-inf) [2, 8] was 7920 ± 457 ng·h/mL, the half-life [2, 8] was 4.4 ± 0.2 h and the CL/F ([2]; in vivo, ICR mouse, 10 mg/kg single oral administration, read-out: CL/F (converted)) was 22 mL/min/kg. The Vd/F ([2]; in vivo, ICR mouse, 10 mg/kg single oral administration, read-out: Vd/F) was 8.41 ± 0.843 L/kg, the AUC(0-inf) [2, 9] was 27100 ± 1090 ng·h/mL and the half-life [2, 9] was 4.3 ± 0.4 h. The CL/F ([2]; in vivo, ICR mouse, 30 mg/kg single oral administration, read-out: CL/F (converted)) was 14.5 mL/min/kg, the Vd/F ([2]; in vivo, ICR mouse, 30 mg/kg single oral administration, read-out: Vd/F) was 5.45 ± 0.512 L/kg and the AUC(0-inf) (in vivo; SD, iv, 1 mg/kg) was 164 ± 13.1 ng·h/mL. It also gave a Vd/F (in vivo; SD, iv, 1 mg/kg) of 18.377 ± 2.743 L/kg, a half-life (in vivo; SD, iv, 1 mg/kg) of 2.1 ± 0.3 h and an AUC(0-inf) (in vivo; SD, po, 9 mg/kg) of 9120 ± 4130 ng·h/mL. For the same compound, the Vd/F (in vivo; SD, po, 9 mg/kg) was 19.7 ± 4.34 L/kg, the half-life (in vivo; SD, po, 9 mg/kg) was 14.6 ± 8.7 h and the AUC(0-t) (in vivo; Sprague-Dawley) was roughly 3000 ng·h/mL. For the same compound, the AUC (in vivo; Sprague-Dawley, po, 9 mg/kg) was 3000 ng·h/mL, the CL/F (in vivo; Sprague-Dawley, po, 9 mg/kg) was 19 mL/min/kg and the Cmax (in vivo; Sprague-Dawley, po, 9 mg/kg) was 508 ng/mL. The half-life (in vivo; Sprague-Dawley, po, 9 mg/kg) was 10.8 h.
